# Measurements from ChEMBL document CHEMBL5252628, “Novel xanthone antibacterials: Semi-synthesis, biological evaluation, and the action mechanisms” (Bioorg Med Chem, 2023).
# Active and inactive are the calls of the source. No cut-off for these calls is given here.
# Legend:
# Staphylococcus aureus [1] = assay: Antibacterial activity against Staphylococcus aureus ATCC 29213 assessed as appearance of circular vesicles at 5 x MIC incubated for 2 hrs by transmission electron microscopy analysis; format: functional, organism-based
# Staphylococcus aureus [2] = assay: Antibacterial activity against Staphylococcus aureus ATCC 29213 assessed as separation of plasma wall at 5 x MIC incubated for 2 hrs by transmission electron microscopy analysis; format: functional, organism-based
# Staphylococcus aureus [3] = assay: Antibacterial activity against methicillin-resistant Staphylococcus aureus 2 assessed as blurred space in cytoplasm and cell wall at 5 x MIC incubated for 2 hrs by transmission electron microscopy analysis; format: functional, organism-based
# Staphylococcus aureus [4] = assay: Antibacterial activity against Staphylococcus aureus ATCC 33591 assessed as inhibition of bacterial growth incubated for 18 to 24 hrs by broth microdilution assay; format: functional; conditions: time 18-24 hrs
# Staphylococcus aureus [5] = assay: Antibacterial activity against Staphylococcus aureus ATCC 43300 assessed as inhibition of bacterial growth incubated for 18 to 24 hrs by broth microdilution assay; format: functional; conditions: time 18-24 hrs
# L02 = assay: Cytotoxicity against human L02 cells assessed as reduction in cell viability at 25 ug/ml incubated for 72 hrs by CCK-8 assay; format: toxicity, cell-based; conditions: l02, 72 h, dose 25 µg/ml
# Salmonella enteritidis = assay: Antibacterial activity against Salmonella enteritidis SM012 assessed as inhibition of bacterial growth incubated for 18 to 24 hrs by broth microdilution assay; format: functional, Salmonella enterica subsp. enterica serovar Enteritidis; conditions: Salmonella enterica, time 18-24 hrs
# Staphylococcus aureus [6] = assay: Inhibition of biofilm formation in Staphylococcus aureus ATCC 29213 at 4 to 16 microg/ml incubated for 18 to 24 hrs by crystal violet staining based assay; format: functional, organism-based; conditions: dose 4-16 µg/ml, time 18-24 hrs
# Staphylococcus aureus [7] = assay: Antibacterial activity against methicillin-resistant Staphylococcus aureus 2 assessed as separation of plasma wall at 5 x MIC incubated for 2 hrs by transmission electron microscopy analysis; format: functional, organism-based
# Staphylococcus aureus [8] = assay: Antibacterial activity against Staphylococcus aureus ATCC 29213 assessed as blurred space in cytoplasm and cell wall at 5 x MIC incubated for 2 hrs by transmission electron microscopy analysis; format: functional, organism-based
# Staphylococcus aureus [9] = assay: Antibacterial activity against methicillin-resistant Staphylococcus aureus 2 assessed as appearance of circular vesicles at 5 x MIC incubated for 2 hrs by transmission electron microscopy analysis; format: functional, organism-based
# Staphylococcus aureus [10] = assay: Bactericidal activity against methicillin-resistant Staphylococcus aureus 2 assessed as reduction in colony forming unit at 1 to 8 times MIC incubated for 18 to 24 hrs by time kill assay; format: functional, organism-based; conditions: time 18-24 hrs
# Staphylococcus aureus [11] = assay: Antibacterial activity against Staphylococcus aureus ATCC 29213 assessed as cell wall loosening at 5 x MIC incubated for 2 hrs by transmission electron microscopy analysis; format: functional, organism-based
# Cell membrane [12] = assay: Induction of membrane depolarization in Staphylococcus aureus ATCC 29213 at 5 x MIC incubated for 2 hrs by DiOC23 dye based based flow cytometry; format: subcellular
# Escherichia coli = assay: Antibacterial activity against Escherichia coli ATCC 25922 assessed as inhibition of bacterial growth incubated for 18 to 24 hrs by broth microdilution assay; format: functional; conditions: time 18-24 hrs
# Staphylococcus aureus [13] = assay: Bactericidal activity against Staphylococcus aureus ATCC 29213 assessed as reduction in colony forming unit at 1 to 8 times MIC incubated for 18 to 24 hrs by time kill assay; format: functional, organism-based; conditions: time 18-24 hrs
# Cell membrane [14] = assay: Induction of cell membrane permeability in methicillin-resistant Staphylococcus aureus 2 at 5 x MIC incubated for 2 hrs by TO-PRO-3 reagent flow cytometry assay; format: subcellular
# Staphylococcus aureus [15] = assay: Antibacterial activity against methicillin-resistant Staphylococcus aureus 2 assessed as cell wall loosening at 5 x MIC incubated for 2 hrs by transmission electron microscopy analysis; format: functional, organism-based
# Staphylococcus aureus [16] = assay: Inhibition of biofilm formation in methicillin-resistant Staphylococcus aureus 2 at 4 to 16 microg/ml incubated for 18 to 24 hrs by crystal violet staining based assay; format: functional, organism-based; conditions: dose 4-16 µg/ml, time 18-24 hrs
# Staphylococcus aureus [17] = assay: Antibacterial activity against Staphylococcus aureus ATCC 29213 assessed as inhibition of bacterial growth incubated for 18 to 24 hrs by broth microdilution assay; format: functional; conditions: time 18-24 hrs
# Cell membrane [18] = assay: Induction of cell membrane permeability in Staphylococcus aureus ATCC 29213 at 5 x MIC incubated for 2 hrs by TO-PRO-3 reagent flow cytometry assay; format: subcellular
# A549 = assay: Cytotoxicity against human A549 cells assessed as reduction in cell viability at 25 ug/ml incubated for 72 hrs by CCK-8 assay; format: toxicity, cell-based; conditions: a549, 72 h, dose 25 µg/ml
# Staphylococcus aureus [19] = assay: Antibacterial activity against Staphylococcus aureus SH-27 assessed as inhibition of bacterial growth incubated for 18 to 24 hrs by broth microdilution assay; format: functional; conditions: time 18-24 hrs
# Cell membrane [20] = assay: Induction of membrane depolarization in methicillin-resistant Staphylococcus aureus 2 at 5 x MIC incubated for 2 hrs by DiOC23 dye based based flow cytometry; format: subcellular
# Staphylococcus aureus [21] = assay: Antibacterial activity against methicillin-resistant Staphylococcus aureus 2 assessed as inhibition of bacterial growth incubated for 18 to 24 hrs by broth microdilution assay; format: functional; conditions: time 18-24 hrs
# [22] = Hemolytic activity in rabbit RBC assessed as hemolysis incubated for 1 hr by microtiter plate method; format: toxicity, cell-based, Oryctolagus cuniculus, Erythrocyte; conditions: red blood cells
# Staphylococcus aureus [23] = assay: Induction of drug resistance in Staphylococcus aureus ATCC 29213 assessed as fold increase in MIC measured after 20 passage; format: functional
# Staphylococcus aureus [24] = assay: Bactericidal activity against Staphylococcus aureus ATCC 29213 assessed as reduction in colony forming unit at 4 times MIC measured after 4 hrs by time kill assay; format: functional
# Staphylococcus aureus [25] = assay: Antibacterial activity Staphylococcus aureus ATCC 29213 infected BALB/c mouse assessed as decrease in degree of lesion at 50 to 100 mg/kg,iv measured on day 1 and 3 after infection by hematoxylin and eosin staining based assay; format: functional, organism-based; conditions: dose 50-100 mg/kg
# Staphylococcus aureus [26] = assay: Inhibition of biofilm formation in Staphylococcus aureus ATCC 29213 at 1 times MIC incubated for 18 to 24 hrs by crystal violet staining based assay; format: functional; conditions: time 18-24 hrs
# Staphylococcus aureus [27] = assay: Antibacterial activity Staphylococcus aureus ATCC 29213 infected BALB/c mouse assessed as reduction in bacterial burden at 50 to 100 mg/kg,iv measured on day 1 and 3 after infection; format: functional, organism-based; conditions: dose 50-100 mg/kg
# Staphylococcus aureus [28] = assay: Antibacterial activity Staphylococcus aureus ATCC 29213 infected BALB/c mouse assessed as increase in skin thickness at 50 to 100 mg/kg,iv measured on day 1 and 3 after infection by hematoxylin and eosin staining based assay; format: functional, organism-based; conditions: dose 50-100 mg/kg
# Staphylococcus aureus [29] = assay: Antibacterial activity Staphylococcus aureus ATCC 29213 infected BALB/c mouse assessed as IL-1beta cytokine level at 50 to 100 mg/kg,iv measured on day 1 and 3 after infection; format: functional, organism-based; conditions: dose 50-100 mg/kg
# Staphylococcus aureus [30] = assay: Antibacterial activity Staphylococcus aureus ATCC 29213 infected BALB/c mouse assessed as TNF-alpha cytokine level at 50 to 100 mg/kg,iv measured on day 1 and 3 after infection; format: functional, organism-based; conditions: dose 50-100 mg/kg
# Cell membrane [31] = assay: Induction of cell membrane disruption in Staphylococcus aureus ATCC 29213 assessed as increase in protein leakage at 5 x MIC incubated for 2 hrs by coomassie brilliant blue dye assay; format: subcellular
# Staphylococcus aureus [32] = assay: Antibacterial activity Staphylococcus aureus ATCC 29213 infected BALB/c mouse assessed as decrease in volume of skin abscess at 50 to 100 mg/kg,iv measured on day 1 and 3 after infection; format: functional, organism-based; conditions: dose 50-100 mg/kg
# Cell membrane [33] = assay: Disruption of membrane integrity in Staphylococcus aureus ATCC 29213 assessed as cell membrane damage at 5 x MIC incubated for 2 hrs by DAPI staining based assay
# Cell membrane [34] = assay: Induction of cell membrane disruption in Staphylococcus aureus ATCC 29213 assessed as increase in intracellular vanomycin content at 10 x MIC incubated for 2 hrs by UPLC analysis
# Staphylococcus aureus [35] = assay: Bactericidal activity against methicillin-resistant Staphylococcus aureus 2 assessed as reduction in colony forming unit at 4 times MIC measured after 4 hrs by time kill assay; format: functional
# Cell membrane [36] = assay: Induction of cell membrane disruption in methicillin-resistant Staphylococcus aureus 2 assessed as increase in protein leakage at 5 x MIC incubated for 2 hrs by coomassie brilliant blue dye assay; format: subcellular
# Cell membrane [37] = assay: Disruption of membrane integrity in Staphylococcus aureus ATCC 29213 assessed as cell membrane damage at 5 x MIC incubated for 2 hrs by propidium iodide staining based assay; format: subcellular
# Staphylococcus aureus [38] = assay: Inhibition of biofilm formation in methicillin-resistant Staphylococcus aureus 2 at 1 times MIC incubated for 18 to 24 hrs by crystal violet staining based assay; format: functional; conditions: time 18-24 hrs
# [39] = Cytotoxicity against human L02 cells assessed as reduction in cell viability incubated for 72 hrs by CCK-8 assay; format: toxicity, cell-based
# [40] = Cytotoxicity against human A549 cells assessed as reduction in cell viability incubated for 72 hrs by CCK-8 assay; format: toxicity, cell-based
structure (smiles),measurement,setting,value
COc1c(O)cc2oc3cc(O)c(CC=C(C)C)c(O)c3c(=O)c2c1CC=C(C)C [MANGOSTIN],Activity,Staphylococcus aureus [1],Active
same,Activity,Staphylococcus aureus [2],Active
same,Activity,Staphylococcus aureus [3],Active
same,MIC,Staphylococcus aureus [4],1 mg/L
same,MIC,Staphylococcus aureus [5],1 mg/L
same,Activity,L02,Non-Toxic
same,MIC,Salmonella enteritidis,> 256 mg/L
same,inhibition,Staphylococcus aureus [6],Dose-Dependent Effect
same,Activity,Staphylococcus aureus [7],Active
same,Activity,Staphylococcus aureus [8],Active
same,Activity,Staphylococcus aureus [9],Active
same,Activity,Staphylococcus aureus [10],Active
same,Activity,Staphylococcus aureus [11],Active
same,Activity,Cell membrane [12],Active
same,MIC,Escherichia coli,> 256 mg/L
same,Activity,Staphylococcus aureus [13],Active
same,Activity,Cell membrane [14],100%
same,Activity,Staphylococcus aureus [15],Active
same,inhibition,Staphylococcus aureus [16],Dose-Dependent Effect
same,MIC,Staphylococcus aureus [17],2 mg/L
same,Activity,Cell membrane [18],100%
same,Activity,A549,Non-Toxic
same,MIC,Staphylococcus aureus [19],2 mg/L
same,Activity,Cell membrane [20],Active
same,MIC,Staphylococcus aureus [21],2 mg/L
same,HC50 at 1 h,[22],26.2 µg/mL
COc1c(O)cc2oc3cc(O)c(CC=C(C)C)c(OC(C)=O)c3c(=O)c2c1CC=C(C)C,Activity,Staphylococcus aureus [1],Active
same,Activity,Staphylococcus aureus [23],inactive
same,Activity,Staphylococcus aureus [24],4.57 log10CFU
same,Activity,Staphylococcus aureus [2],Active
same,Activity,Staphylococcus aureus [3],Active
same,Activity,Staphylococcus aureus [25],Active
same,inhibition (INH),Staphylococcus aureus [26],90%
same,MIC,Staphylococcus aureus [4],1 mg/L
same,MIC,Staphylococcus aureus [5],1 mg/L
same,Activity,Staphylococcus aureus [27],Active
same,MIC,Salmonella enteritidis,> 256 mg/L
same,Activity,Staphylococcus aureus [28],Active
same,inhibition,Staphylococcus aureus [6],Dose-Dependent Effect
same,Activity,Staphylococcus aureus [7],Active
same,Activity,Staphylococcus aureus [29],Active
same,Activity,Staphylococcus aureus [8],Active
same,Activity,Staphylococcus aureus [9],Active
same,Activity,Staphylococcus aureus [10],Active
same,Activity,Staphylococcus aureus [11],Active
same,Activity,Staphylococcus aureus [30],Active
same,Activity,Cell membrane [12],Active
same,MIC,Escherichia coli,> 256 mg/L
same,Activity,Staphylococcus aureus [13],Active
same,Activity,Cell membrane [31],Active
same,Activity,Staphylococcus aureus [32],Dose-Dependent Effect
same,Activity,Cell membrane [14],100%
same,Activity,Cell membrane [33],Active
same,Activity,Cell membrane [34],Active
same,Activity,Staphylococcus aureus [35],3.72 log10CFU
same,Activity,Staphylococcus aureus [15],Active
same,inhibition,Staphylococcus aureus [16],Dose-Dependent Effect
same,Activity,Cell membrane [36],Active
same,MIC,Staphylococcus aureus [17],4 mg/L
same,Activity,Cell membrane [18],100%
same,Activity,Cell membrane [37],Active
same,inhibition (INH),Staphylococcus aureus [38],98%
same,Activity,A549,Non-Toxic
same,MIC,Staphylococcus aureus [19],2 mg/L
same,Activity,Cell membrane [20],Active
same,MIC,Staphylococcus aureus [21],4 mg/L
same,HC50 at 1 h,[22],6.3 µg/mL
same,IC50 at 72 h,[39],22.1 mg/L
COc1c(OC(C)=O)cc2oc3cc(O)c(CC=C(C)C)c(O)c3c(=O)c2c1CC=C(C)C,MIC,Staphylococcus aureus [4],2 mg/L
same,MIC,Staphylococcus aureus [5],2 mg/L
same,MIC,Salmonella enteritidis,> 256 mg/L
same,IC50 at 72 h,[40],17.5 mg/L
same,MIC,Escherichia coli,> 256 mg/L
same,MIC,Staphylococcus aureus [17],4 mg/L
same,MIC,Staphylococcus aureus [19],2 mg/L
same,MIC,Staphylococcus aureus [21],2 mg/L
same,HC50 at 1 h,[22],> 500 µg/mL
same,IC50 at 72 h,[39],13.2 mg/L
